Measurements from patent US5480908A, “β3 -adrenergic agents benzodioxole dicarboxylates and their use in pharmaceutical compositions” (American Cyanamid Company, priority 1993, dated 1996).
Structures can show the parent of a compound that is named as a salt.

Experiments:
β3 -adrenergic receptor = target: T1, β3 -adrenergic receptor (Rattus norvegicus, UniProt P26255); assay: Lipolysis (β3-effect): stimulation of adipocyte lipolysis, glycerol release; format: cell-based; details: rat epididymal adipocytes, 30 minutes, 37° C.; concentration giving 50% of the maximum rate of lipolysis of that compound
T1 construct: Rat epididymal fat pads are excised and placed in 0.9% saline; from tissue; host or cells: rat epididymal fat pads, collagenase-isolated adipocytes
T1 sequence (P26255 whole entry): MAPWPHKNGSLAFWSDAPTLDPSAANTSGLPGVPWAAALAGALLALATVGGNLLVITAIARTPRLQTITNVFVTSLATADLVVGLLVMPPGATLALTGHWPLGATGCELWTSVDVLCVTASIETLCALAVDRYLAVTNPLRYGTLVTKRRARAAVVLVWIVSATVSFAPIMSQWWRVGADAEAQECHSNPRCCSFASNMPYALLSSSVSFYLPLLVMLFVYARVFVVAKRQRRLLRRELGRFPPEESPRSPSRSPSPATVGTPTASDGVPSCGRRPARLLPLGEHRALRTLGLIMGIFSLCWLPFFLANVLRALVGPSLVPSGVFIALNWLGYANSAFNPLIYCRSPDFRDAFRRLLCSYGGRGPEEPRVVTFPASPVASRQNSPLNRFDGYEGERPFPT
Method: (§1) Selectivity of a compound is determined using the following procedures.
The β3 -effect of the compounds is determined by their ability to stimulate adipocyte lipolysis. Rat epididymal fat pads are excised and placed in 0.9% saline. Four grams of tissue is transferred to a flask with 20 ml of aerated KrebsHenseleit bicarbonate (KHB) buffer containing 3% fatty acid-free bovine serum albumin to which 75 mg of crude bacterial collagenase (Worthington) has been added. The tissue is incubated for about 45 minutes at 37° C. with gentle shaking. The cells are then washed three times with two volumes of KHB buffer, filtered through two layers of gauze, and brought to a final volume of 80 ml with KHB buffer. One-ml-aliquots of the cell suspension is added to plastic test tubes containing the appropriate additions of vehicle or compound. The cells are gassed for 1 minute with 95% O2 -5% CO2, capped, and incubated at 37° C. with continuous shaking for a total of 30 minutes. The reaction is stopped by adding 0.1 ml of 30 % perchloric acid and 0.1 ml of chloroform. […] The amount of glycerol generated from the hydrolysis of endogenous triglycerides is determined in a coupled-enzyme spectrophotometric assay. […] The amount of NADH generated, which is proportional to the amount of glycerol, is determined by the increase in absorbance at 340 nm. […]

β1 -adrenergic receptor [1] = target: T2, β1 -adrenergic receptor (Rattus norvegicus, UniProt P18090); assay: Heart Binding (β1): binding assay with membranes from rat heart; details: rat heart membranes, [^125 I]iodo-cyanopindolol, 1 hour
T2 construct: membranes from rat heart; from tissue; host or cells: rat heart membranes
T2 sequence (P18090 whole entry): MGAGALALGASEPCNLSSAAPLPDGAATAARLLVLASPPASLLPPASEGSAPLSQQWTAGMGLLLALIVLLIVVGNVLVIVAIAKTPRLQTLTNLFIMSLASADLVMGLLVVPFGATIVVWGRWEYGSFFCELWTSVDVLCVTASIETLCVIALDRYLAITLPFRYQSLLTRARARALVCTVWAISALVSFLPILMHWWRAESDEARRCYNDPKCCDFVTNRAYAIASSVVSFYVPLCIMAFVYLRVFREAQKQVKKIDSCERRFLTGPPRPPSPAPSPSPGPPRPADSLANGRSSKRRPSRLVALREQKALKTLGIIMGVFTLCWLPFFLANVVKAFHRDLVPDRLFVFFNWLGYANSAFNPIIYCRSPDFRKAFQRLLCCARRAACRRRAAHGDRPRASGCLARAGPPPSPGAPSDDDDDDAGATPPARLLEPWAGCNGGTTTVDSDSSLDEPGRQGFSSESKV
Method: as §1
(§2) Binding assays for β1 -effect are carried out by the use of membranes from rat heart, and β2 -effect by the use of membranes from rat lung by the method described in Neve, et. al., J. Pharmacol. Exp. Ther., 1985, 235, 657-664 with the following exceptions:
(§3) 1. the incubation volume is 0.5 ml,
(§4) 2. the incubation time is 1 hour,
(§5) 3. the radioligand is [^125 I]iodo-cyanopindolol,
(§6) 4. (--) - isoproterenol (50 μM) is used to define […], and
(§7) 5. the filters are washed at 4° C.

β1 -adrenergic receptor [2] = assay: as above; details: β3 lipolysis vs β1 heart binding
Method: as §1, §2, §3, §4, §5, §6, §7

β2 [3] = target: T3, β2 (Rattus norvegicus, UniProt P10608); assay: Lung Binding (β2): binding assay with membranes from rat lung; details: rat lung membranes, [^125 I]iodo-cyanopindolol, 1 hour
T3 construct: membranes from rat lung; from tissue; host or cells: rat lung membranes
T3 sequence (P10608 whole entry): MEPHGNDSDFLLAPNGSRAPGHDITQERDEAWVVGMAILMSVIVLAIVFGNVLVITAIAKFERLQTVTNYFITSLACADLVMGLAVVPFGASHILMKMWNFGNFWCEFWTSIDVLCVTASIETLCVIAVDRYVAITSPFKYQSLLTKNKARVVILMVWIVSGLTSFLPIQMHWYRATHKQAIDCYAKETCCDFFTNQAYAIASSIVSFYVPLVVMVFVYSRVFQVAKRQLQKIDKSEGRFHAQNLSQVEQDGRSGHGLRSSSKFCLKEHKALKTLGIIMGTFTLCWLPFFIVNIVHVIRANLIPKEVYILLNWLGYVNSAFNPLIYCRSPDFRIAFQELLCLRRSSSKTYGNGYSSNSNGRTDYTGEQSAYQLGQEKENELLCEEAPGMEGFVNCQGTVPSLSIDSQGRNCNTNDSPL
Method: as §1, §2, §3, §4, §5, §6, §7

β2 [4] = assay: as above; details: printed β3; Table 1 indicates β2 (lung binding)
Method: as §1, §2, §3, §4, §5, §6, §7

Compound: C[C@H](Cc1ccc2c(c1)OC(C(=O)O)(C(=O)O)O2)NCC(O)COc1cccc2ccccc12 (mixture of isomers) [Example 1, (R,R) and (S,R)-5-[2-[[2-Hydroxy-3-(1-naphthalenyloxy)propyllamino]propyl-1,3-benzodioxole-2,2-dicarboxylic acid, disodium salt]
- EC50 (β3 -adrenergic receptor): 264 nM
- IC50 (β1 -adrenergic receptor [1]): 1520 nM
- selectivity for the β3 -adrenergic receptor over the β1 -adrenergic receptor (β1 -adrenergic receptor [2]): shows selectivity
- IC50 (β2 [3]): 360 nM
- selectivity when compared to the β3 -receptor (β2 [4]): not selective
